Experimental data taken from US20100210722A1, “COMPOSITION FOR PREVENTING OR TREATING LIPID METABOLIC DISORDERS COMPRISING FUCOXANTHIN OR MARINE PLANT EXTRACT CONTAINING SAME” (AMICOGEN, INC., priority 2007, published 2010).
Marks after values point to notes of the source that are not given here.

Legend:
Type in all cases: in vivo, C57BL/6N/CriBgi mice
[1] = Triglyceride and cholesterol level in plasma; conditions: high fat diet, 6 weeks, fasted 12 hours
Experimental: Seventy (70) 4-week-old male C57BL/6N/CriBgi mice weighing 14 g were purchased from Orient, and reared in separate cages maintained at 24° C. and relative humidity of 55%, providing light from 08:00 until 20:00. The mice were accustomed while providing a pellet type diet for a week. The mice, which weighed 18.5-18.7 g, were grouped into seven groups by the randomized block design. Each group was given a different diet, as follows.
(§1) Test diets were as follows: “normal diet group”=AIN-76 semisynthetic diet of Teklad (Madison, Wl, USA); “high fat diet group”=normal diet+10% of corn oil and 10% of lard; “test group I”=high fat diet+fucoxanthin extract of Example 1 (fucoxanthin content=0.05%); “test group II”=high fat diet+fucoxanthin extract of Example 1 (fucoxanthin content=0.2%); “test group III”=high fat diet+fucoxanthin extract of Example 2 (fucoxanthin content=0.05%); “test group IV”=high fat diet+fucoxanthin extract of Example 2 (fucoxanthin content=0.2%). The 6 diets (normal diet, high fat diet, and test I, II, III and IV) were given to the animals for 6 weeks. Diet intake was recorded every day, and body weight was measured once a week.
The mice fed with the test diets for 6 weeks of Reference Example 1 were fasted for 12 hours. The mice were anesthetized first by ether inhalation, and then by intramuscular injection of ketamine-HCl (Yuhan). […] Plasma was separated by carrying out centrifuge at 3,000 rpm for 15 minutes. The separated plasma was stored at −70° C.

[2] = test system: fatty acid synthase (FAS); assay: FAS activity in adipose tissue; conditions: high fat diet, 6 weeks
Description: as §1
(§2) The supernatant was centrifuged again at 12,000×g for 15 minutes. Then, the supernatant was subjected to high-speed centrifuging (Beckman, Optima TLX-120, USA) at 100,000×g for 1 hour. Then, change of the activity of enzymes involved in the synthesis of fatty acid—fatty acid synthase (FAS), glucose-6-phosphate dehydrogenase (G6PD) and malic enzyme (ME)—was measured.
Specifically, FAS activity was determined as follows. […] After 10 minutes of reaction at 30° C., decrease of absorbance was measured. FAS activity was calculated as nmol of NADPH oxidized per 1 mg of protein in cell per minute.

[3] = test system: lipoprotein lipase (LPL) mRNA; assay: Expression of mRNA for LPL in liver tissue (real-time PCR)
CPT mRNA = assay: Expression of mRNA for CPT in adipose tissue (real-time PCR); conditions: normal diet = 1.00, GAPDH internal marker
Description: as §1
5 mL of Trizol was added to 0.5 g of white adipose tissue. After pulverizing in liquid nitrogen using a mortar, the tissue was added to 1 mL of chloroform. […] The isolated RNA was diluted and absorbance was measured at 260 nm using a UV spectrometer. […]
Thus prepared cDNA was […] 10-fold, and primers for analyzing the expression of the respective genes (CPT, β-oxidation, FAS, ME and G6PD) were obtained from Genotech (Daejeon, Korea). […] Fluorescence signals were monitored for each cycle and threshold cycle (Cr) was analyzed for quantitative analysis of mRNA for the test groups (Applied Biosystems, SDS7000) (Livak, 2001). […]

malic enzyme (ME) = assay: ME activity in liver tissue; conditions: high fat diet, 6 weeks
Description: as §1, §2
The ME enzyme is also an enzyme that supplied reducing energy required for the synthesis of fatty acid. […] ME activity was determined as follows. […] After 2 minutes of reaction at 27° C., absorbance was measured at 340 nm. ME activity was calculated as nmol of NADPH produced per 1 mg of protein in cell per minute.

[4] = fucoxanthin content 0.05% (Test I/III)
[5] = fucoxanthin content 0.2% (Test II/IV)

In the case of `CC(=O)O[C@H]1CC(C)(C)C(=C=C/C(C)=C/C=C/C(C)=C/C=C/C=C(C)/C=C/C=C(\C)C(=O)C[C@@]23O[C@]2(C)C[C@@H](O)CC3(C)C)[C@](C)(O)C1` [highly pure fucoxanthin, Fucoxanthin], the “Cholesterol level in plasma” value [1, 4] is reported as 2.35 ± 0.22^a mmol/L, the “Triglyceride level in plasma” value [1, 4] is reported as 1.15 ± 0.07^b mmol/L and the “Cholesterol level in plasma” value [1, 5] is reported as 2.35 ± 0.11^b mmol/L. The “Triglyceride level in plasma” value [1, 5] was 1.24 ± 0.07^b mmol/L, the FAS activity [2, 4] was 90.55 ± 9.66^a mmol/min/mg protein and the FAS activity [2, 5] was 74.26 ± 6.38^a mmol/min/mg protein. For the same compound, the “Expression of mRNA, LPL” value ([3]; normal diet = 1.00, fucoxanthin content 0.05% (Test I/III)) was 2.11 ± 0.09^b, the “Expression of mRNA, LPL” value ([3]; normal diet = 1.00, fucoxanthin content 0.2% (Test II/IV)) was 1.20 ± 0.14^a and the “Expression of mRNA, CPT” value (CPT mRNA; [4]) was 1.65 ± 0.15^c. For the same compound, the “Expression of mRNA, CPT” value (CPT mRNA; [5]) was 1.51 ± 0.06^bc, the ME activity (malic enzyme (ME); [4]) was 77.06 ± 7.08^a mmol/min/mg protein and the ME activity (malic enzyme (ME); [5]) was 73.91 ± 6.37^a mmol/min/mg protein.
